According to the CheMixHub viscosity set:
Several values for one entry are separate records, joined by “and”; a condition that tells them apart may be missing. Equal entries are not always repeated.

Legend:
[1] = xn = mol fraction of the nth substance listed; settings: 100 kPa

CCn1cc[n+](CCOC)c1.N#C[S-]
100 kPa
Settings	viscosity [mPa·s]
293.15 K	70.77
298.15 K	55.77
303.15 K	44.34
308.15 K	36
313.15 K	29.73
318.15 K	24.89

CCCCCBr
101 kPa
Settings	viscosity [mPa·s]
293.15 K	0.798
303.15 K	0.709
308.15 K	0.6509
313.15 K	0.637
323.15 K	0.574

CC(C)C1CCCCC1
100 kPa
Settings	viscosity
293.15 K	1.098 mPa·s
303.15 K	0.949 mPa·s and 0.95 mPa·s
308.15 K	0.885 mPa·s and 0.889 mPa·s
313.15 K	0.83 mPa·s and 0.833 mPa·s
318.15 K	0.781 mPa·s and 0.783 mPa·s
323.15 K	0.736 mPa·s

CC/C(C)=N/O
101.3 kPa
Settings	viscosity
293.15 K	4.767 mPa·s
298.15 K	4.016 mPa·s and 4.02 mPa·s
303.15 K	3.437 mPa·s

C=CC[n+]1ccn(C)c1.[Cl-]
Settings	viscosity [mPa·s]
298.15 K, 101 kPa	254.5

O=CO
viscosity
Settings	293.15 K	298.15 K	303.15 K	308.15 K	313.15 K	318.15 K	323.15 K
101 kPa	–	–	1.43 mPa·s and 1.434 mPa·s (2×)	1.304 mPa·s	–	1.089 mPa·s	0.9767 mPa·s
101.33 kPa	1.959 mPa·s	1.51 mPa·s	1.36 mPa·s	1.25 mPa·s	1.291 mPa·s and 1.15 mPa·s	–	–

CCCCCCCCn1cc[n+](C)c1.[Cl][Fe-]([Cl])([Cl])[Cl]
101 kPa
Settings	viscosity [mPa·s]
293.15 K	167
298.15 K	133.2
303.15 K	106
308.15 K	84.71
313.15 K	68.3
318.15 K	55.87
323.15 K	46.6

CC(Cl)(Cl)Cl
viscosity
Settings	101 kPa	101.3 kPa	101.32 kPa	101.33 kPa
303.15 K	0.7243 mPa·s and 0.7245 mPa·s	0.7275 mPa·s	0.642 mPa·s and 0.7243 mPa·s	0.7243 mPa·s
313.15 K	–	–	0.583 mPa·s	–

CCCC[N+](CCCC)(CCCC)CCCC.[OH-]
viscosity [mPa·s]
Settings	298.15 K	303.15 K	308.15 K	313.15 K
100 kPa	6.69	6.49	6.29	6.13
101 kPa	6.69	6.49	6.29	6.13

COC(=O)c1ccccc1C(=O)OC
101 kPa
Settings	viscosity [mPa·s]
293.15 K	17.63
298.15 K	13.8
303.15 K	11.07
308.15 K	9.064
313.15 K	7.558
318.15 K	6.4
323.15 K	5.493

CC(C)C1CCCCC1 + CCCCO
viscosity [mPa·s], [1]
Settings	x1 = 0.0995	x1 = 0.1998	x1 = 0.2959	x1 = 0.4009	x1 = 0.4944	x1 = 0.5738	x1 = 0.6818	x1 = 0.7966	x1 = 0.8935
293.15 K	2.489	2.126	1.858	1.614	1.45	1.325	1.214	1.139	1.105
298.15 K	2.189	1.884	1.654	1.449	1.31	1.207	1.114	1.051	1.022
303.15 K	1.94	1.678	1.481	1.308	1.189	1.104	1.024	0.974	0.95
308.15 K	1.726	1.501	1.332	1.185	1.085	1.014	0.947	0.905	0.885
313.15 K	1.539	1.348	1.203	1.078	0.994	0.935	0.879	0.844	0.827
318.15 K	1.379	1.216	1.092	0.985	0.915	0.866	0.818	0.789	0.774
323.15 K	1.241	1.1	0.995	0.906	0.845	0.804	0.764	0.738	0.727

O=CC(Br)(Br)Br
101.33 kPa
Settings	viscosity [mPa·s]
293.15 K	6.81
313.15 K	3.72
